# Results taken from US20240217985A1, “CRYSTALLINE FORM OF AN MDM2-p53 INHIBITOR AND PHARMACEUTICAL COMPOSITIONS” (Boehringer Ingelheim International GmbH, priority 2022, published 2024).
# How the values were obtained:
# [1] = Aqueous solubility and BCS classification; assay type: physicochemical
# [2] = Lipophilicity at physiological pH; assay type: physicochemical
# [3] = Accelerated stress test, stability at 40°C/75% RH (XRPD and HPLC); assay type: physicochemical; details: Example 1 material
# Procedure: (§1) Crystalline materials of Compound A of the present invention were exposed to various temperature and humidity stress conditions and investigated by XRPD and HPLC in order to investigate their physical and chemical stability.
# The crystalline form of Compound A of the present invention (prepared according to the procedure described in Example 1) was open stored under heat and humidity stress conditions of 40° C. and 75% RH for 6 months.
# [4] = Accelerated stress test, stability at 25°C/60% RH (XRPD and HPLC); assay type: physicochemical; details: Example 1 material; for Impurity 1 / Impurity 2 / Impurity 3 / Impurity 4 / Impurity 5 / Total impurities: 25°C/60% RH open storage
# Procedure: as §1
# The crystalline form of Compound A of the present invention (prepared according to the procedure described in Example 1) was open stored under humidity stress conditions of 25° C. and 60% RH for 6 months.
# [5] = Accelerated stress test, stability at 60°C/80% RH (XRPD and HPLC); assay type: physicochemical; details: for Impurity 1 / Impurity 2 / Impurity 3 / Impurity 4 / Impurity 5 / Total impurities: 60°C/80% RH open storage
# Procedure: as §1
# The crystalline form of Compound A of the present invention (prepared according to the procedure described in Example 1 and 3, respectively) was open stored under heat and humidity stress conditions of 60° C. and 80% RH for 3 days.
# For example, the increase in total impurities of crystalline compound A obtained according to the procedure of Example 3 was below 0.5%. Table 9, provides the chemical stability data of the crystalline compound A obtained according to the procedure of Example 1.
# [6] = Accelerated stress test, stability at 70°C and 105°C (XRPD and HPLC); assay type: physicochemical; details: for Impurity 1 / Impurity 2 / Impurity 3 / Impurity 4 / Impurity 5 / Total Imp.: closed glass container
# Procedure: as §1
# The crystalline form of Compound A of the present invention (prepared according to the procedure described in Example 1) was stored in closed glass containers at heat stress condition of 70° C. for 3 weeks. In addition, the crystalline form of Compound A of the present invention (prepared according to the procedures described in Example 1 and 3, respectively) was stored in closed glass containers at heat stress condition of 105° C. for 24 hours.
# For example, the increase in total impurities of crystalline compound A obtained according to the procedure of Example 3 was below 0.5%. Table 10, provides the chemical stability data of the crystalline compound A obtained according to the procedure of Example 1.
# [7] = Gravimetric moisture sorption; assay type: physicochemical; details: 0 to 90% relative humidity, 25.0°C
# Procedure: The crystalline form of Compound A of the present invention was subjected to a gravimetric moisture sorption experiment using a DVS intrinsic moisture sorption analyzer (Surface Measurement System). The measurement was conducted in relative humidity steps of 10%. The time per step was set to a minimum of 5 minutes and a maximum of 6 hours. If an equilibrium condition with a constant mass of ±0.02% within 10 min was reached before the maximum time, the subsequent step was applied before the maximum time of 6 hours. If no equilibrium was achieved the consecutive humidity step was applied after the maximum time of 6 hours. The temperature was (25.0±0.1° C.)
# [8] = tiny-TIM in vitro bioaccessibility under simulated fasted conditions; assay type: in vitro ADME
# Procedure: A tiny-TIM system was used as a model for the simulation of the physiological processes occurring in human stomach and small intestine to study the in vitro bioaccessibility of the crystalline Compound A of the present invention (prepared according to the procedure described in Example 1) under simulated fasted conditions. Thereby, the impact of drug substance particle size distribution (PSD) and amorphous content on bioaccessibility was evaluated by using tablets manufactured from a range of drug substance batches with different amorphous contents and variations in PSD. The investigated drug products also cover extreme conditions such as low amorphous content and coarse PSD as well as high amorphous content and fine PSD.
# [9] = initial, before 40°C/75% RH storage
# [10] = open storage 40°C/75% RH, 6 months
# [11] = open storage 25°C/60% RH, 6 months
# [12] = Example 1 material, open storage 60°C/80% RH, 3 days
# [13] = Example 3 material, open storage 60°C/80% RH, 3 days
# [14] = Example 1 material, 70°C, 3 weeks
# [15] = Example 1 material, 105°C, 24 hours
# [16] = Example 1 material, 70°C, 1 week
# [17] = Example 1 material, 70°C, 2 weeks
# [18] = Example 1 material, closed glass containers, 70°C, 3 weeks
# [19] = Example 1 material, closed glass containers, 105°C, 24 hours
# [20] = Example 3 material, closed glass containers, 105°C, 24 hours
smiles,measurement,setting,value
"Cc1c(C(=O)O)ccc2c3n(nc12)[C@@H]1[C@H](C3)N(CC2CC2)[C@@]2(C(=O)Nc3cc(Cl)ccc32)[C@H]1c1cccc(Cl)c1F [Compound A, (2′S,3′S,3a′S,10a′S)-6-chloro-3′-(3-chloro-2-fluorophenyl)-1′-(cyclopropylmethyl)-6′-methyl-2-oxo-1,2,3′,3a′,10′,10a′-hexahydro-1′H-spiro[indole-3,2′-pyrrolo[2′,3′:4,5]pyrrolo[1,2-b]indazole]-7′-carboxylic acid]",aqueous solubility,[1]; across the physiological pH range,low
same,biopharmaceutical classification system class,"[1]; class II = low solubility, high permeability",class II
same,lipophilicity,[2],lipophilic
"Cc1c(C(=O)O)ccc2c3n(nc12)[C@@H]1[C@H](C3)N(CC2CC2)[C@@]2(C(=O)Nc3cc(Cl)ccc32)[C@H]1c1cccc(Cl)c1F [crystalline form of Compound A, (2′S,3′S,3a′S,10a′S)-6-chloro-3′-(3-chloro-2-fluorophenyl)-1′-(cyclopropylmethyl)-6′-methyl-2-oxo-1,2,3′,3a′,10′,10a′-hexahydro-1′H-spiro[indole-3,2′-pyrrolo[2′,3′:4,5]pyrrolo[1,2-b]indazole]-7′-carboxylic acid]",stability under accelerated stress conditions (summary),"[3]; 40°C/75% relative humidity, 6 months",stable
same,"Impurity A, Initial Peak Area-%",[3]; [9],0.06%
same,"Impurity B, Initial Peak Area-%",[3]; [9],0.06%
same,"Impurity C, Initial Peak Area-%",[3]; [9],0.05%
same,"Impurity D, Initial Peak Area-%",[3]; [9],0.23%
same,"Impurity E, Initial Peak Area-%",[3]; [9],0.31%
same,"Total impurities, Initial Peak Area-%",[3]; [9],0.71%
same,"Impurity A, Peak Area-% at 6 months",[3]; [10],Not detected
same,"Impurity B, Peak Area-% at 6 months",[3]; [10],0.06%
same,"Impurity C, Peak Area-% at 6 months",[3]; [10],0.06%
same,"Impurity D, Peak Area-% at 6 months",[3]; [10],0.25%
same,"Impurity E, Peak Area-% at 6 months",[3]; [10],0.33%
same,"Total impurities, Peak Area-% at 6 months",[3]; [10],0.70%
same,chemical stability: impurity profile of initial sample vs stressed sample,[3]; [10],no significant increase of chemical impurities
same,physical stability: XRPD of initial sample vs stressed sample,[3]; [10],No differences in reflection positions
same,Impurity 1,[4]; 1 month,0.07%
same,Impurity 2,[4]; 1 month,≤0.05%
same,Impurity 3,[4]; 1 month,0.06%
same,Impurity 4,[4]; 1 month,0.23%
same,Impurity 5,[4]; 1 month,0.25%
same,Total impurities,[4]; 1 month,0.61%
same,Impurity 1,[4]; 2 months,0.07%
same,Impurity 2,[4]; 2 months,≤0.05%
same,Impurity 3,[4]; 2 months,0.06%
same,Impurity 4,[4]; 2 months,0.23%
same,Impurity 5,[4]; 2 months,0.25%
same,Total impurities,[4]; 2 months,0.61%
same,Impurity 1,[4]; 3 months,0.07%
same,Impurity 2,[4]; 3 months,≤0.05%
same,Impurity 3,[4]; 3 months,≤0.05%
same,Impurity 4,[4]; 3 months,0.23%
same,Impurity 5,[4]; 3 months,0.25%
same,Total impurities,[4]; 3 months,0.60%
same,Impurity 1,[4]; 6 months,0.07%
same,Impurity 2,[4]; 6 months,≤0.05%
same,Impurity 3,[4]; 6 months,0.06%
same,Impurity 4,[4]; 6 months,0.23%
same,Impurity 5,[4]; 6 months,0.27%
same,Total impurities,[4]; 6 months,0.63%
same,Impurity 1,[4]; Start,0.08%
same,Impurity 2,[4]; Start,0.06%
same,Impurity 3,[4]; Start,≤0.05%
same,Impurity 4,[4]; Start,0.26%
same,Impurity 5,[4]; Start,0.26%
same,Total impurities,[4]; Start,0.66%
same,stability under stress conditions (summary),"[4]; 25°C/60% relative humidity, 6 months",stable
same,chemical stability: impurity profile of initial samples vs stressed samples,[4]; [11],no significant increase of chemical impurities
same,physical stability: XRPD of initial sample vs stressed sample,[4]; [11],No differences in reflection positions
same,Impurity 1,"[5]; Example 1 material, 3 days",0.07%
same,Impurity 2,"[5]; Example 1 material, 3 days",≤0.05%
same,Impurity 3,"[5]; Example 1 material, 3 days",0.07%
same,Impurity 4,"[5]; Example 1 material, 3 days",0.24%
same,Impurity 5,"[5]; Example 1 material, 3 days",0.31%
same,Total impurities,"[5]; Example 1 material, 3 days",0.69%
same,Impurity 1,"[5]; Example 1 material, Start",0.08%
same,Impurity 2,"[5]; Example 1 material, Start",0.06%
same,Impurity 3,"[5]; Example 1 material, Start",≤0.05%
same,Impurity 4,"[5]; Example 1 material, Start",0.26%
same,Impurity 5,"[5]; Example 1 material, Start",0.26%
same,Total impurities,"[5]; Example 1 material, Start",0.66%
same,stability under stress conditions (summary),"[5]; Example 1 material, 60°C/80% relative humidity, 3 days",stable
same,chemical stability: impurity profiles of initial samples vs stressed samples,[5]; [12],no significant increase of chemical impurities
same,physical stability: XRPD of initial samples vs stressed samples,[5]; [12],No differences in reflection positions
same,physical and chemical stability under stress conditions (summary),"[5]; Example 3 material, 60°C/80% relative humidity, 3 days",physically and chemically stable
same,increase in total impurities,[5]; [13],below 0.5%
same,physical stability: XRPD of initial samples vs stressed samples,[5]; [13],No differences in reflection positions
same,physical and chemical stability under temperature stress (summary),[6]; [14],physically and chemically stable
same,physical and chemical stability under temperature stress (summary),[6]; [15],physically and chemically stable
same,Impurity 1,[6]; [16],0.07%
same,Impurity 2,[6]; [16],≤0.05%
same,Impurity 3,[6]; [16],0.07%
same,Impurity 4,[6]; [16],0.24%
same,Impurity 5,[6]; [16],0.26%
same,Total Imp.,[6]; [16],0.64%
same,Impurity 1,[6]; [17],0.07%
same,Impurity 2,[6]; [17],≤0.05%
same,Impurity 3,[6]; [17],0.06%
same,Impurity 4,[6]; [17],0.23%
same,Impurity 5,[6]; [17],0.25%
same,Total Imp.,[6]; [17],0.61%
same,Impurity 1,[6]; [14],0.07%
same,Impurity 2,[6]; [14],≤0.05%
same,Impurity 3,[6]; [14],0.07%
same,Impurity 4,[6]; [14],0.24%
same,Impurity 5,[6]; [14],0.31%
same,Total Imp.,[6]; [14],0.69%
same,Impurity 1,[6]; [15],0.07%
same,Impurity 2,[6]; [15],≤0.05%
same,Impurity 3,[6]; [15],0.06%
same,Impurity 4,[6]; [15],0.23%
same,Impurity 5,[6]; [15],0.25%
same,Total Imp.,[6]; [15],0.61%
same,Impurity 1,"[6]; Example 1 material, Start",0.08%
same,Impurity 2,"[6]; Example 1 material, Start",0.06%
same,Impurity 3,"[6]; Example 1 material, Start",≤0.05%
same,Impurity 4,"[6]; Example 1 material, Start",0.26%
same,Impurity 5,"[6]; Example 1 material, Start",0.26%
same,Total Imp.,"[6]; Example 1 material, Start",0.66%
same,chemical stability: impurity profiles of initial samples vs stressed samples,[6]; [18],remained chemically stable
same,physical stability: XRPD of initial samples vs stressed samples,[6]; [18],No differences in reflection positions
same,chemical stability: impurity profiles of initial samples vs stressed samples,[6]; [19],remained chemically stable
same,physical stability: XRPD of initial samples vs stressed samples,[6]; [19],No differences in reflection positions
same,physical and chemical stability under temperature stress (summary),"[6]; Example 3 material, 105°C, 24 hours",physically and chemically stable
same,increase in total impurities,[6]; [20],below 0.5%
same,physical stability: XRPD of initial samples vs stressed samples,[6]; [20],No differences in reflection positions
same,water uptake,[7]; material obtained from ACN/H2O (Example 3),about 3.1 % (w/w)
same,water uptake,[7]; material obtained from IPA/H2O (Example 1),about 3.6 % (w/w)
same,"bioaccessibility profile, crystalline form versus amorphous Compound A",[8]; tablets,comparable bioaccessibility profiles
same,effect of PSD and amorphous content on bioaccessibility and concentration profiles,"[8]; tablets from batches of Table 15 (amorphous content 6-75%, D50 3.6-25.0 μm)",did not have a significant effect
